Laboratory results from patent publication US20240207421A1, “NERVE TARGETING PEPTIDES AND METHODS OF USE” (ALUME BIOSCIENCES, INC., priority 2020, published 2024).

How the values were obtained:
[1] = tested on: excised human nerve tissue (or nerve extracts); test: Phage display library screening (Example 2), NEB tissue-binding peptides: nerve tissue and nerve extracts versus muscle; conditions: unique sequence count, peptides not binding muscle extracts; for Count Excised Nerve: tissue target: excised nerve; for Count Nerve Extract: tissue target: nerve extract; for Count Neuron: tissue target: neuron
Description: (§1) Phage display library screens were used to identify peptides that bind to target proteins (including specific laminin trimers) that are expressed in human nerves, as described in Table 3. These screens were also carried out to identify peptides that could bind selectively to nerves versus muscle. Such peptides could therefore be useful for systemic in-vivo labeling of nerves during fluorescence assisted surgery. Specifically, m 13 phage libraries expressing 7 or 12 random amino acid peptides, or a cyclic peptide CX7C, on the N-terminus of the minor coat protein pIII (New England Biolabs; NEB) were processed through multiple rounds of selection for binding to target proteins expressed in nerves, or to excised human nerves, nerve extracts, or muscle, as described further below.
To identify peptides selective for nerves versus muscle, phage from the same libraries used for specific target proteins were used to screen against excised human nerve tissue (or nerve extracts) and human muscle tissue.
Excised Nerve Tissue: Phage were processed through multiple cycles of selection, with representative phage being isolated and sequenced after each selection cycle. Specifically, for selection using human nerve tissue, a sample of […] tissue (2 mm by 2 mm) was washed prior to mixing and incubation with a phage library. After incubation, the mixture (containing mostly intact nerves with phage particles that had variable affinity for nerves) was centrifuged and the nerve pellet washed multiple times with PBS to remove phage with little or no affinity for nerve tissue. The pellet was homogenized and plated for titering and reamplification. Phage that were bound at each round were sequenced. NextGen sequencing of pools after 2, 3 and 4 rounds of selection were used to isolate candidate sequences that were further analyzed using bioinformatics.
Nerve Extracts: Phage libraries were incubated for up to 24 hours at 4° C. in 96 well plates that had been coated with a human nerve extract. Plates were then washed with PBS and phage were eluted using 0.2M glycine pH 2.0. Phage supernatants where then neutralized with Tris pH 9.0 prior to plating on TG1 bacteria and LB agar plates. Colonies were counted to determine titer followed by DNA preparation of pools of phage and NextGen sequencing. After rounds of selection, phage were pooled and amplified for iterative selection. Phage that eluted by 0.2M glycine pH 2.0 (the nerve binders) at each round were sequenced. NextGen sequencing of pools after 2, 3 and 4 rounds of selection were used to isolate candidate sequences that were further analyzed using bioinformatics.
Muscle Tissue: Phage were processed through multiple cycles of selection, with representative phage being isolated and sequenced after each selection cycle. Specifically, for selection using human skeletal muscle tissue, a sample of skeletal muscle tissue (2 mm by 2 mm) was washed prior to mixing and incubation with a phage library. After incubation, the mixture (containing mostly intact muscle with phage particles that had variable affinity for muscle) was centrifuged and the muscle pellet washed multiple times with PBS to remove phage with little or no affinity for muscle tissue. The pellet was then homogenized and plated for titering and reamplification. Phage that were bound at each round were sequenced. NextGen sequencing of pools after 2, 3 and 4 rounds of selection were used to isolate candidate sequences that were further analyzed using bioinformatics.
For all NEB sequence datasets, a python script was used to translate, trim, and filter the peptide sequences (see details above). A python script was used to group peptides from different assays according to tissue target (muscle, nerve, neuron, or nerve extract) and combine the unique sequence counts for each peptide. […]

Laminin 421/521 = test: Phage display library screening (Example 2), NEB laminin-binding peptides; parameters: species or system human; conditions: Laminin 421/521, not 211 and 411; combined unique sequence count, Python/R script analysis
Description: as §1
For screening against the specified target proteins in Table 1, including LN211, LN411, LN421, and LN521, the phage library was processed by up to 4 binding and wash cycles. For selection, phage libraries were incubated for up to 24 hours at 4° C. in 96 well plates that had been coated with one of the target proteins. Plates were then washed with PBS and phage were eluted using 0.2M glycine pH 2.0. Phage supernatants where then neutralized with Tris pH 9.0 prior to plating on TGI bacteria and LB agar plates. Colonies were counted to determine titer followed by DNA preparation of pools of phage and NextGen sequencing. After rounds of selection, phage were pooled and amplified for iterative selection. Phage that were bound at each round were sequenced. NextGen sequencing of pools after 2, 3 and 4 rounds of selection was used to isolate candidate sequences that were analyzed further to identify those that specifically bound each unique target protein.
For all NEB sequence datasets, a python script was used to translate, trim, and filter the peptide sequences (see details above). A python script was used to group peptides from different assays according to laminin complex binding (laminin complex 211, 411, 421, or 521) and combine the unique sequence counts for each peptide. An R script was written to merge the peptide sequences from different data files and determine peptides that specifically bind one laminin complex and not the others, or that bind both laminin 421 and 521 but not 211 and 411.

Row | Substance | Count Excised Nerve [1] | Count Nerve Extract [1] | Count Neuron [1] | Count (Laminin 421/521)
1 | WPLKRFEQLPLK | 6 | 14 | 8 | 
2 | SSLYMNGWSRDQ | 23 | 49 | 26 | 
3 | YAGQNGWMRSDL | 28 | 45 | 17 | 
4 | TLNARDQLSING (nerve-binding peptide) | 7 | 13 | 6 | 
5 | EESNAKLELLSR | 12 | 26 | 14 | 
6 | TDNGSFLGKLTS | 7 | 14 | 7 | 
7 | SEPIEKGSRTIV | 7 | 13 | 6 | 
8 | QSTLGVHMLRVS | 6 | 13 | 7 | 
9 | GWANSITYRNLY | 17 | 26 | 9 | 
10 | GHAHSLTQNPLF | 10 | 18 | 8 | 
11 | GTALNLQKDINK | 6 | 12 | 6 | 
12 | YANGIEAKDSSR | 14 | 20 | 6 | 
13 | WSGGMEDNSNRL | 9 | 18 | 9 | 
14 | RTVITNEMLLLV | 7 | 13 | 6 | 
15 | VRLPMLASMGHQ | 19 | 40 | 21 | 
16 | GWNEATNSARHT | 26 | 32 | 6 | 
17 | ALNHNGPVKTGL | 10 | 16 | 6 | 
18 | QRATNDILIRGW | 9 | 17 | 8 | 
19 | AIMSYNSPWIQG | 9 | 17 | 8 | 
20 | MLKMERPGRMAY | 9 | 15 | 6 | 
21 | NTEYSRYTSIWK | 8 | 14 | 6 | 
22 | NAVHRPDLNLLA | 15 | 22 | 7 | 
23 | QANLYYWDPSDL | 8 | 17 | 9 | 

Row | Substance | Count Excised Nerve [1] | Count Nerve Extract [1] | Count Neuron [1] | Count (Laminin 421/521)
24 | SDHTFKRVMFRW | 8 | 15 | 7 | 
25 | DVMQMFHQVHFY | 10 | 17 | 7 | 
26 | VPVPKKMSLDPT | 8 | 14 | 6 | 
27 | LQTHSITYRHER | 7 | 19 | 12 | 
28 | NGMNWLQVHQLS | 12 | 18 | 6 | 
29 | DASQYPLVSGLW | 10 | 16 | 6 | 
30 | SGEYNLIKPNLL | 20 | 27 | 7 | 
31 | NYAVGDRITKNI | 18 | 25 | 7 | 
32 | EFARFRVFGVAE | 22 | 30 | 8 | 
33 | VTDMLGIPKLHA | 18 | 28 | 10 | 
34 | VRSDMVSGGLQK | 14 | 20 | 6 | 
35 | IPGQTPRMPHSK | 8 | 21 | 13 | 
36 | AFRFEFQVPDSH | 7 | 18 | 11 | 
37 | QNIVENFIDNER | 20 | 27 | 7 | 
38 | LQSNAADHHQGM (Laminin 421/521-binding peptide) |  |  |  | 75
39 | VPQIRIK (Laminin 421/521-binding peptide) |  |  |  | 47
40 | YHLGPNQKMRTS (Laminin 421/521-binding peptide) |  |  |  | 48
41 | TFAAAQAELIMV (Laminin 421/521-binding peptide) |  |  |  | 38
42 | CSVWNSGNC (Laminin 421/521-binding peptide) |  |  |  | 43
43 | WNANYGTMTRHA (Laminin 421/521-binding peptide) |  |  |  | 92
44 | GGGYHIFGPLVT (Laminin 421/521-binding peptide) |  |  |  | 43
45 | YTPRNQL (Laminin 421/521-binding peptide) |  |  |  | 55
46 | SWHFTGTPFMNR (Laminin 421/521-binding peptide) |  |  |  | 28

Row | Substance | Count Excised Nerve [1] | Count Nerve Extract [1] | Count Neuron [1] | Count (Laminin 421/521)
47 | GWTSDLSRNVRG (Laminin 421/521-binding peptide) |  |  |  | 28
48 | SWQMRSY (Laminin 421/521-binding peptide) |  |  |  | 48
49 | DSLYRGMHQPRI (Laminin 421/521-binding peptide) |  |  |  | 29
50 | QPTPSQIKFTRT (Laminin 421/521-binding peptide) |  |  |  | 28
51 | GDLLLKR (Laminin 421/521-binding peptide) |  |  |  | 47
52 | CPMHQSKTC (Laminin 421/521-binding peptide) |  |  |  | 28
53 | TKGIAPK (Laminin 421/521-binding peptide) |  |  |  | 28
54 | AHAAGRDMRQGT (Laminin 421/521-binding peptide) |  |  |  | 36
55 | CNHLTQKLC (Laminin 421/521-binding peptide) |  |  |  | 45
56 | WPMMQTR (Laminin 421/521-binding peptide) |  |  |  | 29
57 | STNVQRA (Laminin 421/521-binding peptide) |  |  |  | 28
58 | CKSPAIKGC (Laminin 421/521-binding peptide) |  |  |  | 29
59 | HTQIHRL (Laminin 421/521-binding peptide) |  |  |  | 28
60 | GSPEKRT (Laminin 421/521-binding peptide) |  |  |  | 30
61 | NDTGRHASGISK (Laminin 421/521-binding peptide) |  |  |  | 32
62 | GPLLFRG (Laminin 421/521-binding peptide) |  |  |  | 30
63 | CGETTAGKC (Laminin 421/521-binding peptide) |  |  |  | 33
64 | GYDLSRLWGMAS (Laminin 421/521-binding peptide) |  |  |  | 39
65 | TALSHRHEAMRW (Laminin 421/521-binding peptide) |  |  |  | 28
66 | CKSERGPEC (Laminin 421/521-binding peptide) |  |  |  | 30
67 | ALPWQSGVHGTK (Laminin 421/521-binding peptide) |  |  |  | 34
68 | HSFLGAR (Laminin 421/521-binding peptide) |  |  |  | 44
69 | HSTYAPG (Laminin 421/521-binding peptide) |  |  |  | 33
